test system: scopolamine-induced amnesia; test: Y-shaped maze test of spontaneous alternation behavior, prophylactic activity against scopolamine-induced amnesia; assay type: in vivo, mice (ddY strain); conditions: male ddY mice; 5000 nmol/kg weight once orally 60 minutes before Y-shaped maze test; scopolamine 1 mg/kg weight subcutaneously 30 minutes before test
Procedure: Male mice (n=15) of the ddY strain (approximately 7-week old) were used, and they took food and water ad lib. Test substances used were 500 nmol/kg weight (230 ug/kg weight) and 5000 nmol/kg weight (2300 ug/kg weight) of Val-Pro-Pro-Phe (SEQ ID NO: 2). The test substances were administered to the mice once orally 60 minutes before the execution of a Y-shaped maze test for evaluation of spontaneous alternation behavior. Further, 30 minutes before the execution of the Y-shaped maze test, 1 mg/kg weight of scopolamine was subcutaneously administered on the backs of the mice in order to induce brain dysfunction (dysmnesia and/or cognitive impairment) in the mice. In the Y-shaped maze test, a Y-shaped maze was used as an experimental device, in which the length of each arm was 40 cm, the height of the wall was 12 cm, the width of the floor was 3 cm, and the width of the upper part was 10 cm, and three arms were connected to each other at an angle of 120 degrees. […] The sequence of the arms each of the mice entered was recorded. The number of entries by each of the mice for each of the arms during the measurement time was counted to be the total number of entries. […] The percentage of spontaneous alternation behavior was calculated by dividing the number of spontaneous alternation behavior by a number obtained by subtracting 2 from the total number of entries, and multiplying a resultant number by 100. […] The measured values were expressed in the form of mean±standard error for each group. A significant difference between the control group and the scopolamine control group was calculated using Student's t-test. Further, a significant difference between the scopolamine control group and the VPPF-administered group was calculated using Dunnett's multiple comparison test after one-way analysis of variance.
Male mice (n=15) of the ddY strain (approximately 7-week old) were used, and they took food and water ad lib. […] The arms each of the mice entered were sequentially recorded. […]

Substance	prophylactic activity against amnesia (percentage of spontaneous alternation behavior)
Asn-Ile-Pro-Pro-Leu (NIPPL; Synthetic functional peptide)	had a prophylactic activity against amnesia
Ile-Pro-Pro-Leu (IPPL; Synthetic functional peptide)	had a prophylactic activity against amnesia
Val-Pro-Pro-Phe (VPPF; Synthetic functional peptide)	had a prophylactic activity against amnesia

Source: patent publication US8916524B2, “Composition for improving brain function and method for improving brain function” (Calpis Co., Ltd., priority 2010, dated 2014)
